Measurements: US20020065219A1, “Water soluble thiazolyl peptide derivatives” (priority 2000, published 2002)
≈ marks a conversion by molar mass, not a printed value. Read-outs that look alike come from different tables or passages of the source.

Assays:
Test in all cases: MIC, broth micro dilution assay (NCCLS)
Assay type in all cases: cell-based
[1] = test system: Staphylococcus aureus A15090; conditions: for MIC: Staphylococcus aureus, A15090, 18 h, read-out: MIC (μg/mL) against Staphylococcus aureus A15090
[2] = test system: Streptococcus pneumoniae A28272; conditions: for MIC: Streptococcus pneumoniae, A28272, 18 h, read-out: MIC (μg/mL) against Streptococcus pneumoniae A28272
[3] = test system: Enterococcus faecalis A20688; conditions: for MIC: Enterococcus faecalis, A20688, 18 h, read-out: MIC (μg/mL) against Enterococcus faecalis A20688
[4] = Mueller-Hinton medium, 35° C., 18 hours
[5] = 50% Mueller-Hinton medium and 50% Todd Hewitt medium, 35° C., 18 hours

| Structure (SMILES) | MIC (μg/mL) against Staphylococcus aureus A15090 [1, 4] | MIC (μg/mL) against Streptococcus pneumoniae A28272 [2, 5] | MIC (μg/mL) against Enterococcus faecalis A20688 [3, 4] | MIC (μg/mL) against Staphylococcus aureus A15090 [1] | MIC (μg/mL) against Streptococcus pneumoniae A28272 [2] | MIC (μg/mL) against Enterococcus faecalis A20688 [3] | also measured |
| --- | --- | --- | --- | --- | --- | --- | --- |
| CO/C(C)=C1/NC(=O)C(C(C)O)NC(=O)c2csc(n2)-c2cc(O)c(-c3nc(C(=O)NC(CSCCc4nnn[nH]4)C(N)=O)cs3)nc2-c2csc(n2)C2COC(=O)c3c4c5c(cccc5n3O)COC(=O)C(O[C@H]3C[C@](C)(O)[C@H](N(C)C)[C@H](C)O3)C(OC4)C(NC(=O)c3csc1n3)c1nc(cs1)C(=O)N2 (stereo partly drawn) [Example 47] | 2.0 µg/mL (≈ 1.28 µM) | 0.25 µg/mL (≈ 0.159 µM) | 32 µg/mL (≈ 20.4 µM) |  |  |  |  |
| COC(C)=C1NC(=O)C(C(C)O)NC(=O)c2csc(n2)-c2cc(O)c(-c3nc(C(=O)NC(CN4CCCC4C(C)(C)O)C(N)=O)cs3)nc2-c2csc(n2)C2COC(=O)c3c4c5c(cccc5n3O)COC(=O)C(OC3CC(C)(O)C(N(C)C)C(C)O3)C(OC4)C(NC(=O)c3csc1n3)c1nc(cs1)C(=O)N2 (stereo not drawn) [Example 89] | 0.003 µg/mL (≈ 0.00191 µM) | 0.007 µg/mL (≈ 0.00447 µM) | 0.03 µg/mL (≈ 0.0191 µM) |  |  |  |  |
| CO/C(C)=C1/NC(=O)C(C(C)O)NC(=O)c2csc(n2)-c2cc(O)c(-c3nc(C(=O)NC(CS(=O)(=O)C4C[N+]5([O-])CCC4CC5)C(N)=O)cs3)nc2-c2csc(n2)C2COC(=O)c3c4c5c(cccc5n3O)COC(=O)C(OC3CC(C)(O)C([N+](C)(C)[O-])C(C)O3)C(OC4)C(NC(=O)c3csc1n3)c1nc(cs1)C(=O)N2 (stereo not drawn) [Example 105] |  |  |  |  |  |  | MIC [1]: 1 µg/mL (≈ 0.608 µM); MIC [2]: 0.25 µg/mL (≈ 0.152 µM); MIC [3]: 2 µg/mL (≈ 1.22 µM) |
| CNC(=O)N(CCN(C)C)CC(NC(=O)c1csc(-c2nc3c(cc2O)-c2nc(cs2)C(=O)NC(C(C)O)C(=O)N/C(=C(\C)OC)c2nc(cs2)C(=O)NC2c4nc(cs4)C(=O)NC(COC(=O)c4c5c6c(cccc6n4O)COC(=O)C(OC4CC(C)(O)C(N(C)C)C(C)O4)C2OC5)c2nc-3cs2)n1)C(N)=O (stereo not drawn) [Example 110] |  |  |  | 0.5 µg/mL (≈ 0.316 µM) | 0.03 µg/mL (≈ 0.019 µM) | 2.0 µg/mL (≈ 1.26 µM) |  |
| CO/C(C)=C1/NC(=O)C(C(C)O)NC(=O)c2csc(n2)-c2cc(O)c(-c3nc(C(=O)NC(CN4C[C@H](C)NC[C@@H]4C)C(N)=O)cs3)nc2-c2csc(n2)C2COC(=O)c3c4c5c(cccc5n3O)COC(=O)C(O[C@H]3C[C@](C)(O)[C@H](N(C)C)[C@H](C)O3)C(OC4)C(NC(=O)c3csc1n3)c1nc(cs1)C(=O)N2 (stereo partly drawn) [Example 59] | 1.0 µg/mL (≈ 0.644 µM) | 0.25 µg/mL (≈ 0.161 µM) | 2.0 µg/mL (≈ 1.29 µM) |  |  |  |  |
| CO/C(C)=C1/NC(=O)C(C(C)O)NC(=O)c2csc(n2)-c2cc(O)c(-c3nc(C(=O)NC(CN4CCN(CCN(C)C)CC4)C(N)=O)cs3)nc2-c2csc(n2)C2COC(=O)c3c4c5c(cccc5n3O)COC(=O)C(O[C@H]3C[C@](C)(O)[C@H](N(C)C)[C@H](C)O3)C(OC4)C(NC(=O)c3csc1n3)c1nc(cs1)C(=O)N2 (stereo partly drawn) [Example 54] |  |  |  | 0.5 µg/mL (≈ 0.314 µM) | 0.25 µg/mL (≈ 0.157 µM) | 0.125 µg/mL (≈ 0.0784 µM) |  |
| CO/C(C)=C1/NC(=O)C(C(C)O)NC(=O)c2csc(n2)-c2cc(O)c(-c3nc(C(=O)NC(CN4CCN(CCN5CCOCC5)CC4)C(N)=O)cs3)nc2-c2csc(n2)C2COC(=O)c3c4c5c(cccc5n3O)COC(=O)C(O[C@H]3C[C@](C)(O)[C@H](N(C)C)[C@H](C)O3)C(OC4)C(NC(=O)c3csc1n3)c1nc(cs1)C(=O)N2 (stereo partly drawn) [Example 53] |  |  |  | 0.5 µg/mL (≈ 0.305 µM) | 0.5 µg/mL (≈ 0.305 µM) | 1.0 µg/mL (≈ 0.611 µM) |  |
| COC(C)=C1NC(=O)C(C(C)O)NC(=O)c2csc(n2)-c2cc(O)c(-c3nc(C(=O)NC(CNC(CO)Cc4c[nH]cn4)C(N)=O)cs3)nc2-c2csc(n2)C2COC(=O)c3c4c5c(cccc5n3O)COC(=O)C(OC3CC(C)(O)C(N(C)C)C(C)O3)C(OC4)C(NC(=O)c3csc1n3)c1nc(cs1)C(=O)N2 (stereo not drawn) [Example 66] | 2.0 µg/mL (≈ 1.27 µM) | 2.0 µg/mL (≈ 1.27 µM) | 16 µg/mL (≈ 10.1 µM) |  |  |  |  |
| COC(C)=C1NC(=O)C(C(C)O)NC(=O)c2csc(n2)-c2cc(O)c(-c3nc(C(=O)NC(CN4CCCC4CO)C(N)=O)cs3)nc2-c2csc(n2)C2COC(=O)c3c4c5c(cccc5n3O)COC(=O)C(OC3CC(C)(O)C(N(C)C)C(C)O3)C(OC4)C(NC(=O)c3csc1n3)c1nc(cs1)C(=O)N2 (stereo not drawn) [Example 78] | 0.03 µg/mL (≈ 0.0195 µM) | 0.007 µg/mL (≈ 0.00455 µM) | 0.125 µg/mL (≈ 0.0812 µM) |  |  |  |  |
| COC(C)=C1NC(=O)C(C(C)O)NC(=O)c2csc(n2)-c2cc(O)c(-c3nc(C(=O)NC(CN(C)CCCNc4ccncc4)C(N)=O)cs3)nc2-c2csc(n2)C2COC(=O)c3c4c5c(cccc5n3O)COC(=O)C(OC3CC(C)(O)C(N(C)C)C(C)O3)C(OC4)C(NC(=O)c3csc1n3)c1nc(cs1)C(=O)N2 (stereo not drawn) [Example 83] | 1.0 µg/mL (≈ 0.624 µM) | 0.25 µg/mL (≈ 0.156 µM) | 0.5 µg/mL (≈ 0.312 µM) |  |  |  |  |
| CO/C(C)=C1/NC(=O)C(C(C)O)NC(=O)c2csc(n2)-c2cc(O)c(-c3nc(C(=O)NC(CS(=O)(=O)C4CN5CCC4CC5)C(N)=O)cs3)nc2-c2csc(n2)C2COC(=O)c3c4c5c(cccc5n3O)COC(=O)C(O[C@H]3C[C@](C)(O)C(N(C)C)[C@H](C)O3)C(OC4)C(NC(=O)c3csc1n3)c1nc(cs1)C(=O)N2 (stereo partly drawn) [Example 104] |  |  |  |  |  |  | MIC [1]: 0.5 µg/mL (≈ 0.31 µM); MIC [2]: 0.06 µg/mL (≈ 0.0372 µM); MIC [3]: 1 µg/mL (≈ 0.62 µM) |
| CO/C(C)=C1/NC(=O)C(C(C)O)NC(=O)c2csc(n2)-c2cc(O)c(-c3nc(C(=O)NC(CN(CCCN(C)C)CCCN(C)C)C(N)=O)cs3)nc2-c2csc(n2)C2COC(=O)c3c4c5c(cccc5n3O)COC(=O)C(O[C@H]3C[C@](C)(O)[C@H](N(C)C)[C@H](C)O3)C(OC4)C(NC(=O)c3csc1n3)c1nc(cs1)C(=O)N2 (stereo partly drawn) [Example 27] | 4.0 µg/mL (≈ 2.46 µM) | 0.0005 µg/mL (≈ 0.000308 µM) | 2.0 µg/mL (≈ 1.23 µM) |  |  |  |  |
| CO/C(C)=C1/NC(=O)C(C(C)O)NC(=O)c2csc(n2)-c2cc(O)c(-c3nc(C(=O)NC(CSCCC(=O)O)C(N)=O)cs3)nc2-c2csc(n2)C2COC(=O)c3c4c5c(cccc5n3O)COC(=O)C(O[C@H]3C[C@](C)(O)[C@H](N(C)C)[C@H](C)O3)C(OC4)C(NC(=O)c3csc1n3)c1nc(cs1)C(=O)N2 (stereo partly drawn) [Example 40] | 1.0 µg/mL (≈ 0.648 µM) | 0.03 µg/mL (≈ 0.0194 µM) | (4.0) μg/mL |  |  |  |  |
| COC(C)=C1NC(=O)C(C(C)O)NC(=O)c2csc(n2)-c2cc(O)c(-c3nc(C(=O)NC(CN4CCCC4COc4cccnc4)C(N)=O)cs3)nc2-c2csc(n2)C2COC(=O)c3c4c5c(cccc5n3O)COC(=O)C(OC3CC(C)(O)C(N(C)C)C(C)O3)C(OC4)C(NC(=O)c3csc1n3)c1nc(cs1)C(=O)N2 (stereo not drawn) [Example 79] |  |  |  | 0.06 µg/mL (≈ 0.0371 µM) | 0.001 µg/mL (≈ 0.000619 µM) | 0.125 µg/mL (≈ 0.0774 µM) |  |
| CO/C(C)=C1/NC(=O)C(C(C)O)NC(=O)c2csc(n2)-c2cc(O)c(-c3nc(C(=O)NC(CN4CCN(c5ncccn5)CC4)C(N)=O)cs3)nc2-c2csc(n2)C2COC(=O)c3c4c5c(cccc5n3O)COC(=O)C(O[C@H]3C[C@](C)(O)[C@H](N(C)C)[C@H](C)O3)C(OC4)C(NC(=O)c3csc1n3)c1nc(cs1)C(=O)N2 (stereo partly drawn) [Example 22] |  |  |  | 0.5 µg/mL (≈ 0.312 µM) | 0.0005 µg/mL (≈ 0.000312 µM) | 1.0 µg/mL (≈ 0.624 µM) |  |
